{
  "source": "patent US10492491B2",
  "about": "“Insecticide composition including a synergistic agent” (priority 2015, dated 2019)",
  "format_in_all_cases": "cell-based, Periplaneta americana",
  "key": {"[1]": {"system": "cockroach Dorsal Unpaired Median (DUM) neurons", "settings": "for origin of the intracellular calcium concentration rise: with caffeine, omegaconotoxin, pirenzepine"}, "[2]": {"system": "cockroach Dorsal Unpaired Median (DUM) neurons", "assay": "Whole-cell patch-clamp, current-clamp: DUM neuron spontaneous electrical activity", "settings": "IR3535 at 10^-8 M; whole-cell configuration", "procedure": "(§1) Experiments were carried out on cockroach Dorsal Unpaired Median (DUM) neurons. Cockroach neuronal preparations are commonly used as biomedical models for vertebrates and invertebrates and DUM neurons are, furthermore, electrophysiologically and pharmacologically well characterized since most of the biophysical and pharmacological properties of ionic currents and receptors underlying and modulating their spontaneous action potentials have been established by using the well-known patch-clamp technique.\nAdult male cockroaches, Periplaneta americana (see FIG. 1), are taken from our laboratory colonies, which are maintained under standard conditions (29° C., photoperiod of 12 h light/12 h dark). Animals are immobilized dorsal-side up on a dissection dish. The dorsal cuticle, gut and some dorso-longitudinal muscles are removed to allow access to the ventral nerve cord. The abdominal nerve cord and its terminal abdominal ganglion (TAG), carefully dissected under a binocular microscope, are placed in normal saline. Animal care and handling procedures are in accordance with French institutional and national health guidelines. […]\nElectrical activity and neonicotinoïd-induced inward currents are recorded using the patch clamp technique in the whole-cell recording configuration under current-clamp and voltage-clamp mode, respectively. […] Signals are recorded with an Axopatch 200A amplifier. […]"}, "[3]": {"system": "cockroach Dorsal Unpaired Median (DUM) neurons", "assay": "Whole-cell patch-clamp, voltage-clamp: neonicotinoïd-induced inward currents", "settings": "for inward current amplitude after pretreatment with low concentration of IR3535 (conclusion): DUM neurons pretreated with low concentration of IR3535; for induced inward current, insecticide alone (conclusion): act like agonists", "procedure": "as §1\nAdult male cockroaches, Periplaneta americana (see FIG. 1), are taken from our laboratory colonies, which are maintained under standard conditions (29° C., photoperiod of 12 h light/12 h dark). Animals are immobilized dorsal-side up on a dissection dish. The dorsal cuticle, gut and some dorso-longitudinal muscles are removed to allow access to the ventral nerve cord. The abdominal nerve cord and its terminal abdominal ganglion (TAG), carefully dissected under a binocular microscope, are placed in normal saline. Animal care and handling procedures are in accordance with French institutional and national health guidelines.\nThe ventral nerve cord and its terminal abdominal ganglion (TAG) are carefully dissected under a binocular microscope and placed in normal cockroach saline containing (in mM) 200 NaCl, 3.1 KCl, 5 CaCl2, 4 MgCl2, 50 sucrose, and 10 […] (HEPES); pH was adjusted to 7.4 with NaOH. Isolation of adult DUM neuron cell bodies are performed under sterile conditions using enzymatic digestion and mechanical dissociation of the median parts of the TAG as previously described in Lapied et al. (Ionic species involved in the electrical activity of single adult aminergic neurones isolated from sixth abdominal ganglion of cockroach Periplaneta americana J Exp Biol 144:535-49, 1989). The isolated neuron cell bodies are used for recordings 24 h after dissociation.\nElectrical activity and neonicotinoïd-induced inward currents are recorded using the patch clamp technique in the whole-cell recording configuration under current-clamp and voltage-clamp mode, respectively. Patch-clamp electrodes are pulled from borosilicate glass capillary tubes (GC150T-10) using a P-97 model puller. Patch pipettes have resistances ranging from 1 to 1.2 MΩ when filled with internal pipette solution. The liquid junction potential between extracellular and intracellular solutions is always corrected before the formation of a giga Ohm seal (>3 GΩ). Signals are recorded with an Axopatch 200A amplifier. […] Under voltage-clamp conditions, DUM neuron somata are voltage-clamped at a steady state holding potential of −50 mV to measure the effects of thiamethoxam or thiacloprid applied alone and after pretreatment with IR3535® (10^−8 M). Experiments are carried out at room temperature."}, "[4]": {"settings": "thiamethoxam 10^-6 M, pretreated with IR3535 10^-8 M"}},
  "note": "Where two headings read alike, the source gives them in different places.",
  "data": [
    {"smiles": "CCN(CC)C(=O)c1cccc(C)c1", "note": "[DEET, N,N-diethyl-3-methylbenzamide]", "values": [
      {"measurement": "ratio of emitted fluorescence (340 nm/380 nm), maximum value", "setting": "[1]; DEET at 10^-7 M (maximum)", "value": 0.7},
      {"measurement": "ratio of emitted fluorescence (340 nm/380 nm)", "setting": "[1]; DEET between 3.10^-8 M and 3.10^-7 M", "value": "above 0.6"},
      {"measurement": "effect on intracellular calcium concentration, low concentration range", "setting": "[1]; DEET from 10^-9 M to 10^-7 M", "value": "elevation of the intracellular calcium concentration"},
      {"measurement": "effect on intracellular calcium concentration, higher concentrations", "setting": "[1]; DEET higher than 10^-7 M", "value": "important decrease of the intracellular calcium concentration"},
      {"measurement": "concentration giving the maximum elevation of intracellular calcium concentration", "setting": "[1]; DEET low concentration range", "value": "10^−7 M"}
    ]},
    {"smiles": "CCCCN(CCC(=O)OCC)C(C)=O", "note": "[IR3535®, 3-[N-Butyl-N-acetyl]-aminopropionic acid, ethyl ester]", "values": [
      {"measurement": "effect on membrane potential", "setting": "[2]", "value": "significant membrane depolarization"},
      {"measurement": "effect on spontaneous action potential discharge frequency", "setting": "[2]", "value": "increase of the spontaneous action potential discharge frequency"},
      {"measurement": "lower concentration which produces a significant elevation of intracellular calcium concentration", "setting": "[1]; DUM neurons", "value": "10^−8 M"},
      {"measurement": "origin of the intracellular calcium concentration rise", "setting": "[1]; IR3535 at 10^-8 M", "value": "extracellular calcium through plasma membrane voltage-dependent calcium channels via M1/M3 mAChR sub-type modulation"},
      {"measurement": "effect on intracellular calcium concentration, zone I", "setting": "[1]; IR3535 between 3.10^-9 M and 3.10^-8 M, bath application", "value": "transient increase of intracellular calcium concentration"},
      {"measurement": "effect on intracellular calcium concentration, zone II", "setting": "[1]; IR3535 from 10^-7 M to 3.10^-6 M", "value": "additional elevation of intracellular calcium concentration"},
      {"measurement": "origin of the intracellular calcium concentration rise", "setting": "[1]; higher concentrations of IR3535 (10^-5 M)", "value": "both extracellular calcium and calcium released from internal stores"},
      {"measurement": "concentration giving the maximum of the zone I intracellular calcium increase", "setting": "[1]; zone I (3.10^-9 M to 3.10^-8 M)", "value": "10^−8 M"},
      {"measurement": "concentration giving the maximum effect on intracellular calcium, zone III", "setting": "[1]; zone III, very high concentration", "value": "3.10^−5 M"}
    ]},
    {"smiles": "N#C/N=C1\\SCCN1Cc1ccc(Cl)nc1", "note": "[thiacloprid]", "values": [
      {"measurement": "concentration giving the maximum increase of inward current amplitude after IR3535 pretreatment", "setting": "[3]; DUM neuron pretreated with IR3535 10^-8 M", "value": "10^−6 M"},
      {"measurement": "inward current amplitude after pretreatment with low concentration of IR3535 (conclusion)", "setting": "[3]", "value": "more important"},
      {"measurement": "induced inward current, insecticide alone (conclusion)", "setting": "[3]; alone", "value": "inward current with a small amplitude"},
      {"measurement": "concentration giving the maximum effect on inward current amplitude, applied alone", "setting": "[3]; alone, holding potential -50 mV", "value": "10^−3 M"},
      {"measurement": "effect on inward current amplitude, applied alone", "setting": "[3]; bath application alone, holding potential -50 mV", "value": "dose-dependent increase of the inward current amplitude"},
      {"measurement": "effect on inward current amplitude at higher concentration after IR3535 pretreatment", "setting": "[3]; thiacloprid 10^-5 M, pretreated with IR3535 10^-8 M", "value": "important decrease of the current amplitude"}
    ]},
    {"smiles": "CN1COCN(Cc2cnc(Cl)s2)/C1=N\\[N+](=O)[O-]", "note": "[thiamethoxam]", "values": [
      {"measurement": "induced inward current, applied alone", "setting": "[3]; 10^-6 M alone, holding potential -50 mV, n=3-4", "value": "inward current with small amplitudes"},
      {"measurement": "inward current amplitude after pretreatment with low concentration of IR3535 (conclusion)", "setting": "[3]", "value": "more important"},
      {"measurement": "induced inward current, insecticide alone (conclusion)", "setting": "[3]; alone", "value": "inward current with a small amplitude"},
      {"measurement": "effect of IR3535 pretreatment on induced inward current amplitude", "setting": "[3]; [4]", "value": "important increase of the thiamethoxam-induced inward current amplitude"},
      {"measurement": "mean current amplitude after IR3535 pretreatment relative to applied alone", "setting": "[3]; [4]", "value": "about 6 fold"}
    ]}
  ]
}
